Assay [1] is described as follows: Trypanosoma cruzi growth suppression in host cells – NIH3T3 host cells, beta-gal luminescence, confirmation (AID 2044).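 Further: intracellular parasites grown in NIH/3T3 mouse fibroblasts as host cells; luminescent beta-galactosidase reporter signal from transgenic T. cruzi replicating inside host cells; inhibitors lower the luminescence signal.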 Type of assay: functional, cell-based.
Assay [2] in a line: NIH3T3 cell viability loss – ATP luminescence, mouse fibroblasts, counter-screen, dose response (AID 2010).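 Further: cells exposed to compound for about 90 hours before reading.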 Type of assay: functional, cell-based. A general note: A counterscreen serves to expose hits that act by an unwanted route or on another target.
Assay [3] is described as follows: Luminescence Cell-Based Dose Confirmation HTS to Identify Activators of 5'UTR Stem-Loop Driven Alpha-Synuclein mRNA Translation in H4 Neuroglioblastoma Cells. [Related pubchem assays: 1829 (Project Summary), 1814 (Primary HTS)]. Type of assay: functional.
Assay [4] can be described thus: Luminescence Cell-Based Dose Response HTS to Identify Activators of Luciferase Translation or Activity in H4 […] Cells. [Related pubchem assays: 1829 (Project Summary), 1814 (Primary HTS)]. The format is functional.
For the next assay, the system named is H4. The assay can be described thus: Luminescence Cell-Based Dose Response HTS to Identify Activators of 5'UTR Stem-Loop Driven Prion Protein mRNA Translation in H4 Neuroglioblastoma Cells. [Related pubchem assays: 1829 (Project Summary), 1814 (Primary HTS)]. Type of assay: functional. The following applies: Homo sapiens.
A further assay deals with T1, Cytochrome P450 1A2 (Homo sapiens, UniProt P05177).
T1 sequence (P05177 whole entry): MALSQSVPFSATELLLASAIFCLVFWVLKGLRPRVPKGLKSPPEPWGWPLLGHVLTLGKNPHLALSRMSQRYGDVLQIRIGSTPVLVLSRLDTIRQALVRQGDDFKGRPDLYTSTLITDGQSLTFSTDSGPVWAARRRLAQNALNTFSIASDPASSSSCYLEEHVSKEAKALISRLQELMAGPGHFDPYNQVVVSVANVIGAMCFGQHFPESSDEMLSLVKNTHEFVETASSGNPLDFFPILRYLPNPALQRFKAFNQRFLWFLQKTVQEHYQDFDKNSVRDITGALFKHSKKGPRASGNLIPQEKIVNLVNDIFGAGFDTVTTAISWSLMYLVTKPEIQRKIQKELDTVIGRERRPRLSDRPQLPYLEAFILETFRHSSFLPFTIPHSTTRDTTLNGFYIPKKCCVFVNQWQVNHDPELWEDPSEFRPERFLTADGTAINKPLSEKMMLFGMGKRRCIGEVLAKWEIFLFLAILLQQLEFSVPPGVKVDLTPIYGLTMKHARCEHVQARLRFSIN

For assay [5], the target named is T2, Heat shock factor protein 1 (Mus musculus, UniProt P38532).
T2 sequence (P38532 whole entry): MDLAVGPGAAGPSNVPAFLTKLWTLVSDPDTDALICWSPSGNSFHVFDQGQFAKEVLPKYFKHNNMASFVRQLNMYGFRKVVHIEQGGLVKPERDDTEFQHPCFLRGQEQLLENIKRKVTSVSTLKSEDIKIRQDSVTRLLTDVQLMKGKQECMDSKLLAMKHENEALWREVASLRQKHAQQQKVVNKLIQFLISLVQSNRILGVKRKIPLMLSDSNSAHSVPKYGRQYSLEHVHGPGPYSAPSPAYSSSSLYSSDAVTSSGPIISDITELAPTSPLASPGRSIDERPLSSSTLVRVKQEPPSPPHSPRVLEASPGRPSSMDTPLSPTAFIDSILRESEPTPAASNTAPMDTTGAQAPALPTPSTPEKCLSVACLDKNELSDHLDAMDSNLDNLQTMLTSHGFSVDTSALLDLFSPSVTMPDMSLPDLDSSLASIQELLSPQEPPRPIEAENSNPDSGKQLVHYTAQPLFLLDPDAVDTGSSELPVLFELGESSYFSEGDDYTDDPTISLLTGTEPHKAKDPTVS
Briefly: decrease of HSF1-responsive luciferase luminescence – cell-based, NIH3T3, dose retest, confirmation (AID 2382).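 Further: NIH3T3 fibroblasts with HSF1-driven luciferase reporter stressed by proteasome inhibitor MG132; luminescence from HSF1-driven luciferase expression after 8 hours of MG132 stress.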 Type of assay: functional.

Structures are written as SMILES. The source made the active and inactive calls. For most assays here, no stated cut-off is given here; in the data, actives have a measured EC50 and inactives only a lower limit. A value given as a limit tells only on which side of the number the result lay.

As usually defined, the EC50 is the concentration at which the effect is half-maximal. In general, AC50 refers to the concentration at which the activity in the assay is half-maximal.
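Wherever AC50 is given: PubChem cytochrome P450 panel assay, CYP1A2 panel member.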

In the case of `CC(C)Cc1nnc(NC(=O)c2cccc(S(=O)(=O)N3CCN(C)CC3)c2)s1`, the figures for the EC50 in assay [1] and in assay [2] were 0.1 µM (active) and > 60 µM (not active), respectively.

Turning to `c1ccc(CN2CCN(c3cnc4ccccc4n3)CC2)cc1`, the values for the EC50 (in assay [3]; in assay [4]; with H4) were 4.79 µM (active), 26.8 µM (active) and 10.9 µM (active), respectively.

Turning to `COc1ccccc1Cn1nnc2c(=O)[nH]c(C3CCN(C(=O)c4ccc(C)cc4)CC3)nc21`, the AC50 at Cytochrome P450 1A2 is 25.1 µM (inconclusive).

Regarding `Fc1ccc(-c2csc(/C=C/c3ccc4c(c3)OCO4)n2)cc1`, the concentration giving a half-maximal response (EC50) is 9.2 µM (active) in assay [3], 9.07 µM (active) in assay [4] and 46.8 µM (active) in the assay on H4.

With `COc1ccc(-c2ccc(-c3nnn(CC(=O)N4CCOCC4)n3)cc2)cc1`, the EC50 in assay [3] is 4.15 µM (active); in assay [4] it was 4.67 µM (active); with H4, 2.65 µM (active).

For `COc1ccc(N2CCN(C(=O)CSc3ncnc4scc(-c5ccc(C)cc5)c34)CC2)cc1`, the EC50 in assay [1] is 1.03 µM (active); in assay [2] it was > 60 µM (not active).

Turning to `COC(=O)c1ccc(OCc2cc(=O)n3ccsc3n2)cc1`, the EC50 in assay [3] is 21.2 µM (active); in assay [4] it was > 120 µM (not active).

As to `CCN(CC)CCN1C(=O)Cn2c(C)c(C)c3cccc1c32`, the EC50 in assay [1] is 0.206 µM (active); in assay [2], > 60 µM (not active).

On to `Cc1cc(C)[n+]2n1C([O-])=C(c1ccccc1)C2=O`, for which the concentration giving a half-maximal response (EC50) in assay [4] is 29.1 µM (active); with H4 it was 13.1 µM (active).

`O=C(/C=C/c1ccccc1)NCCC1=CCCCC1`: the EC50 was 0.378 µM (active) in assay [3], 2.93 µM (active) in assay [4] and 13.1 µM (active) in the assay on H4.

Take `O=C(CSc1cccc2cccnc12)N1CCCC1`: the values for the EC50 in assay [1] and in assay [2] were 0.299 µM (active) and 8.3 µM (active), respectively.

Turning to `O=C(CN1CCN(C2CCCCC2)CC1)NCCC1=CCCCC1`, the AC50 at Cytochrome P450 1A2 was 20 µM (inconclusive).

`O=C(Nc1ccccc1)[C@@H]1[C@@H]2C(=O)N(c3ccc(F)cc3)C(=O)[C@@H]2[C@H]2C=CC=NN21`: the EC50 is > 120 µM (not active) in assay [3], > 60 µM (not active) in assay [4] and > 120 µM (not active) in the assay on H4.

Consider `CC(C)C(=O)Nc1cccc(-c2nc3ncccc3o2)c1`, for which the EC50 in assay [5] was > 195 µM (not active).

With `Cc1ccccc1NC(=O)N1C2CCCC1CC(NC(=O)C1CC1)C2` (stereo not given), the EC50 in assay [5] was > 195 µM (not active).

Regarding `O=C(CCCNC(=O)/C(=C\c1ccccc1F)NC(=O)c1ccccc1)OCc1ccccc1`, in assay [5], the EC50 is > 195 µM (not active).

Consider `CCCCN(C)C(=O)CCC(=O)Nc1ccc2nc(N3CCN(C)CC3)cc(C)c2c1`, for which the concentration giving a half-maximal response (EC50) in assay [5] is on record as > 195 µM (not active).

With `CCOC(=O)CN1CC23C=CC(O2)C(C(=O)NC2CCCCC2)C3C1=O` (stereo not given), in assay [5], the EC50 is recorded as > 195 µM (not active).

As for `O=C(c1ccc(Cl)cc1)N1CCCC(c2ccccc2)=N1`, the AC50 on Cytochrome P450 1A2 was 0.141 µM (inconclusive).

With `Cc1cc(C)c(-c2nc3ccccc3s2)[nH]1`, the EC50 in assay [3] is 0.207 µM (active); in assay [4] it was 1.61 µM (active); with H4, 30.3 µM (active).

Consider `CC(C)(C)CC(=O)NCCc1csc(-c2ccccc2)n1`, for which the EC50 in assay [1] was 1.1 µM (active); in assay [2], > 60 µM (not active).

Regarding `O=C(Nc1ccc([N+](=O)[O-])cc1)C1(c2ccccc2)CCOCC1`, in assay [5], the concentration for a half-maximal effect (EC50) was > 195 µM (not active).

Regarding `O=C(CCC1CCCNC1)c1ccccc1` (stereo not given), in assay [5], the EC50 is > 195 µM (not active).

For `COCCCNC(=O)Cn1cnc2sc(C)c(S(=O)(=O)N3CCN(c4ccccc4OC)CC3)c2c1=O`, the EC50 in assay [5] is > 195 µM (not active).

Take `Cc1[nH]c2ccccc2c1C(=O)CSc1nc2cc(S(=O)(=O)N3CCCCC3)ccc2o1`: the EC50 in assay [1] was 2.54 µM (active); in assay [2], 18.2 µM (active).

Regarding `O=C(COc1ccc(Cl)cc1Cl)NC(=O)N1CCCCC1`, the half-maximal effective concentration (EC50) is 6.03 µM (active) in assay [3], 30.6 µM (active) in assay [4] and 92.5 µM (active) in the assay with H4.

`COC(=O)[C@@]1(Cc2ccc(OC)cc2)[C@H]2c3cc(C(=O)N4CCCC4)n(CCc4c[nH]c5cc(F)ccc45)c3C[C@H]2CN1C(=O)c1ccccc1`: the AC50 at Cytochrome P450 1A2 was 39.8 µM (inconclusive).

As to `CCCS(=O)(=O)c1nc(S(=O)(=O)c2ccc(C)cc2)c(N2CCN(CCO)CC2)s1`, the figures for the EC50 (in assay [3]; in assay [4]; in the assay with H4) were 18.7 µM (active), 8.79 µM (active) and > 120 µM (not active), respectively.

With `O=C(Nc1ccn(Cc2ccccc2)n1)c1ccc2c(c1)OCO2`, the EC50 in assay [3] is 15.6 µM (active); in assay [4], 18.5 µM (active); with H4, > 120 µM (not active).

For `Fc1ccc(COc2ccc(Br)cc2CNCc2ccncc2)cc1`, the figures for the EC50 in assay [1] and in assay [2] were 0.78 µM (active) and > 30 µM (not active), respectively.

In the case of `CCOc1ccc(CN2CCN(Cc3cccn3-c3cccnc3)CC2CCO)cc1` (stereo not given), the EC50 in assay [1] is 1.89 µM (active); in assay [2], > 60 µM (not active).

Take `CCOc1ccc(N/C(=C(/C(=O)C(=O)N2CCOCC2)C(=O)c2ccccc2)c2ccccc2)cc1`: the EC50 is 13.3 µM (active) in assay [3], 20.3 µM (active) in assay [4] and 57.8 µM (active) in the assay on H4.

Consider `Cc1cc(N2CCN(C)CC2)nc2ccc(NC(=O)c3cccnc3Cl)cc12`, for which the EC50 in assay [5] is given as > 195 µM (not active).

Regarding `O=C(O)C(=O)Nc1ccc(NC(=O)C(c2ccccc2)c2ccccc2)cc1`, the EC50 in assay [5] was > 195 µM (not active).

Turning to `Cc1ccc(C(=O)NCc2ccc(N3CCN(C)CC3)cc2)cc1C`, the EC50 in assay [5] was > 195 µM (not active).

`COc1ccc(CCN(Cc2cccs2)S(=O)(=O)c2ccc(S(=O)(=O)N(C)C3CCCCC3)cc2)cc1OC`: the EC50 in assay [1] was 0.878 µM (active); in assay [2], > 60 µM (not active).

Consider `CC(=O)NCC1=C(NC(C)=O)C2CC1C(C)(C)C2C` (stereo not given), for which, in assay [5], the EC50 is recorded as > 195 µM (not active).

For the compound `O=S(=O)(NC(=NC(=S)Nc1ccccc1)c1ccccc1)c1ccc(Cl)cc1`, the EC50 in assay [3] is 41.4 µM (active); in assay [4], 59.7 µM (active); with H4 it was 63.2 µM (active).

Take `NC(=O)C1(N2CCCCC2)CCN(C2CC(=O)NC2=O)CC1` (stereo not given): the EC50 (in assay [3]; in assay [4]; with H4) was > 120 µM (not active) in each case.

With `O=C(/C=C/c1ccc2c(c1)OCO2)Nc1nncs1`, the concentration for a half-maximal effect (EC50) in assay [4] was 0.1 µM (active); with H4, 18.6 µM (active).

On to `COc1ccc(-c2cn3c(C)c(C(=O)NCCN4CCOCC4)sc3n2)cc1`, for which the AC50 on Cytochrome P450 1A2 was 0.126 µM (inconclusive).

Turning to `C/C(CC1CC(COCC(C)C)OC1=O)=N\Nc1nc(-c2ccccc2)cs1` (stereo not given), the EC50 in assay [3] is > 120 µM (not active); in assay [4] it was > 120 µM (not active); in the assay on H4, 71.2 µM (active).

On to `COc1ccccc1C(=O)NCC(=O)N/N=C/c1ccc2c(c1)OCO2`, for which, in assay [5], the EC50 is > 195 µM (not active).

Regarding `CNC(=S)N/N=C/c1c(Cl)cccc1Cl`, the EC50 in assay [5] is > 195 µM (not active).

With `O=C(N/N=C\c1ccc2c(c1)OCO2)c1ccc(Cn2cc(Br)c([N+](=O)[O-])n2)o1`, the results for the half-maximal effective concentration (EC50) in assay [1] and in assay [2] were 0.408 µM (active) and > 60 µM (not active), respectively.

For the compound `CCc1cc(/C=N/C2CCCCC2)c(O)s1`, the EC50 in assay [3] is 67.7 µM (active); in assay [4], > 120 µM (not active); in the assay with H4, > 120 µM (not active); in assay [5], > 195 µM (not active).

For `CC(C)(C)C1CCc2[nH]c3ccccc3c(=O)c2C1` (stereo not given), the half-maximal effective concentration (EC50) was 1.1 µM (active) in assay [1] and > 60 µM (not active) in assay [2].

Values taken from ChEMBL document CHEMBL1201862, “PubChem BioAssay data set” (2004).
